Results published in patent publication US20230256050A1, “COMPOSITIONS, METHODS AND USES COMPRISING TENEURIN C-TERMINAL ASSOCIATED PEPTIDE -1 (TCAP-1) FOR ENHANCING MUSCLE PERFORMANCE” (priority 2016, published 2023).

Tests used:
[1] = test system: C2C12 myotubes; assay: Calcium imaging in live C2C12 cells (fluo-4); assay type: cell-based, mouse; details: caffeine 4 mM, TCAP-1 100 nM pre-treatment for 1 hour
Experimental: For live-cell fluorescence experiments, immortalized murine C2C12 skeletal muscle cells were grown and fully differentiated on Poly-D-lysine coated 25 mm round No. 1 glass coverslips (Warner Instruments, Hamden, CT, USA). Cells were grown in Dulbecco’s Modified Eagle Medium (DMEM) supplemented with 20% fetal bovine serum (FBS), 100 U/ml penicillin and 100 µg/ml streptomycin (Invitrogen, Burlington, ON, Canada), and stimulated differentiation with DMEM supplemented with 10% horse serum (HS), 100 U/ml penicillin and 100 µg/ml streptomycin (Invitrogen, Burlington, ON, Canada. Changes in intracellular calcium were assessed using the membrane-permeable calcium sensitive fluorescent indicator fluo-4, AM (Invitrogen, Burlington, ON, Canada). Cells were loaded with fluo-4 by incubating a single coverslip in DMEM containing 10 µM fluo-4 (from a 1 mM stock solution in DMSO) for 30 min (37° C.) followed by a 15 min wash in Locke’s Buffer containing (in mM): 154 mM NaCl, 4 mM NaHCOs, 5 mM KCI, 2.3 mM CaCl2, 1 mM MgCl2, 5 mM glucose and 10 mM Hepes (pH 7.4); osmolarity 305-310 mOsmol at 22° C. During loading, the acetate groups on fluo-4 are removed by intracellular esterases reducing dye leakage. In experiments assessing changes in intracellular calcium, coverslips were placed in a flow-through bath chamber (RC-40HP, Warner Instruments, Hamden, CT, USA) of an inverted microscope (Axio Observer Z1, Zeiss, Toronto, ON, Canada) equipped with a 40× oil immersion objective. Cells were continuously bulk perfused with Locke’s buffer via a gravity drip perfusion system at a rate of 2-3 ml min-1 and experiments were conducted at a room temperature (RT) of 22° C. Changes in fluo-4 fluorescence was imaged using a green fluorescent protein (GFP) filter set (Semrock, Rochester, NY, USA) and a X-Cite 120 fluorescence illumination system (Excelitas Technologies, Mississauga, ON, Canada), controlled by Volocity 4.0 imaging software (Quorum Technologies Inc., Guelph, ON, Canada). Fluorescence emissions were detected with an Orca-ER Hamamatsu B/W CCD digital camera (Hamamatsu, Middlesex, NJ, USA). Fluo-4 was excited with a wavelength of 480 nm for 100 ms every 5 sec and fluorescence emission was measured at wavelength of 516 nm. Caffeine (4 mM; Sigma Aldrich, Oakville, ON) was applied to C2C12 myotubes to stimulate calcium release from the sarcoplasmic reticulum. Cells were either pre-treated with TCAP-1 (100 nM) for 1 hour before stimulation with caffeine. Using velocity 4.0 imaging software, multiple regions of interests (ROIs) were taken from each coverslip to be analysed.

[2] = test system: C2C12 myotubes; assay: Mitochondrial membrane potential in C2C12 cells with Rhodamine-123; assay type: cell-based, mouse; details: caffeine 4 mM; TCAP-1 100 nM pre-treatment for 1 hour, compared with caffeine alone
Experimental: C2C12 myotubes were cultured as previously described above. Changes in mitochondrial membrane potential were assessed using fluorescent indicator Rhodamine123 (R123). Cells were loaded with R123 by incubating a single coverslip in DMEM containing 5 µM R123 (from a 1 mM stock solution in DMSO) for 30 min (37° C.) followed by a 15 min wash in Locke’s Buffer containing (in mM): 154 mM NaCl, 4 mM NaHCOs, 5 mM KCI, 2.3 mM CaCl2, 1 mM MgCl2, 5 mM glucose and 10 mM Hepes (pH 7.4); osmolarity 305-310 mOsmol at 22° C. […] Changes in R123 fluorescence was imaged using a green fluorescent protein (GFP) filter set (Semrock, Rochester, NY, USA) and a X-Cite 120 fluorescence illumination system (Excelitas Technologies, Mississauga, ON, Canada), controlled by Volocity 4.0 imaging software (Quorum Technologies Inc., Guelph, ON, Canada). Fluorescence emissions were detected with an Orca-ER Hamamatsu B/W CCD digital camera (Hamamatsu, Middlesex, NJ, USA). R123 was excited with a wavelength of 480 nm for 100 ms every 5 sec and fluorescence emission was measured at wavelength of 516 nm. […] Using velocity 4.0 imaging software, multiple regions of interests (ROIs) were taken from each coverslip to be analysed.

## Cn1c(=O)c2c(ncn2C)n(C)c1=O [caffeine, Caffeine, reference compound]
[1]; compared with caffeine alone
  peak in cytosolic calcium on caffeine application (fluo-4 fluorescence): strong peak in cytosolic calcium
[1]; over 5 minutes
  decline of cytosolic calcium after the caffeine peak: gradual decrease over 5 minutes
[2]
  mitochondrial membrane potential (Rhodamine123 fluorescence): mitochondrial membrane depolarization
